Reference: US10287293B2, “Bicyclic heterocyclic compounds as PDE2 inhibitors” (Merck Sharp & Dohme Corp., priority 2015, dated 2019)

Target: Rhesus PDE2A3 (Macaca mulatta, UniProt B3VTJ2)
Assay: PDE2 fluorescence polarization (IMAP FP) inhibition assay, rhesus enzyme
Format: biochemical, rhesus macaque
Conditions: FAM-cAMP 50 nM substrate, cGMP 1 uM activator

Rhesus PDE2A3, sequence (B3VTJ2 1-941): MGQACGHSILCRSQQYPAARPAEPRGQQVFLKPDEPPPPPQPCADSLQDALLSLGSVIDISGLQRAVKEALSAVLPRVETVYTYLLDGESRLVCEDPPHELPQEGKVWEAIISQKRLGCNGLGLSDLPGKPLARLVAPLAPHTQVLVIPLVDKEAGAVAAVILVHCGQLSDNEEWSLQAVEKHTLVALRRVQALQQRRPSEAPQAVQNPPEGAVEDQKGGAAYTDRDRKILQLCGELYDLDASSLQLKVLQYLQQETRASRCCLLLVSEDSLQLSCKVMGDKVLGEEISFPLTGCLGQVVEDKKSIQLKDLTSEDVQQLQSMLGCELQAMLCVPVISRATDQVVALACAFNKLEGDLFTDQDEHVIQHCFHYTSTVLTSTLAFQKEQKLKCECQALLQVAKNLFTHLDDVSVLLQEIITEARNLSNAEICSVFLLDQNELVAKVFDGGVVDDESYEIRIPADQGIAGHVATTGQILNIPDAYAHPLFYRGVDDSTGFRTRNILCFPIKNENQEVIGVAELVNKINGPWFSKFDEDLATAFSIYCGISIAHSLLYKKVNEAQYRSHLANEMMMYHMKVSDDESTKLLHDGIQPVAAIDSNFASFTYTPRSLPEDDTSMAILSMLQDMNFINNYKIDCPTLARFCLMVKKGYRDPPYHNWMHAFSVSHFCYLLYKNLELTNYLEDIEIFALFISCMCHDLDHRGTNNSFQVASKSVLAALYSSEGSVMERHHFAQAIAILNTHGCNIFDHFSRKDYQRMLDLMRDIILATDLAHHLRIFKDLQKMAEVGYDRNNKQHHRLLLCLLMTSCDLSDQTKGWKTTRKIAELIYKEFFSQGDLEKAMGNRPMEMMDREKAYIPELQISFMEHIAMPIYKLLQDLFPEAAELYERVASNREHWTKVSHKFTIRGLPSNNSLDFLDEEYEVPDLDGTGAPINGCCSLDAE

Row | SMILES | Ki
1 | Cc1nn2c([C@@H](C)c3ccc(C(F)(F)F)cc3)nc(C)c2c(=O)[nH]1 (single isomer, unassigned) [Example 26] | 779 nM
2 | Cc1nn2c([C@@H](C)c3ccc(C(F)(F)F)cc3)nc(C)c2c(=O)[nH]1 (single isomer, unassigned) [Example 27] | 21 nM

Target: human PDE2A1 (Homo sapiens (Human), UniProt O00408)
Sequence (O00408 other isoform, or with tags, fused parts or gaps): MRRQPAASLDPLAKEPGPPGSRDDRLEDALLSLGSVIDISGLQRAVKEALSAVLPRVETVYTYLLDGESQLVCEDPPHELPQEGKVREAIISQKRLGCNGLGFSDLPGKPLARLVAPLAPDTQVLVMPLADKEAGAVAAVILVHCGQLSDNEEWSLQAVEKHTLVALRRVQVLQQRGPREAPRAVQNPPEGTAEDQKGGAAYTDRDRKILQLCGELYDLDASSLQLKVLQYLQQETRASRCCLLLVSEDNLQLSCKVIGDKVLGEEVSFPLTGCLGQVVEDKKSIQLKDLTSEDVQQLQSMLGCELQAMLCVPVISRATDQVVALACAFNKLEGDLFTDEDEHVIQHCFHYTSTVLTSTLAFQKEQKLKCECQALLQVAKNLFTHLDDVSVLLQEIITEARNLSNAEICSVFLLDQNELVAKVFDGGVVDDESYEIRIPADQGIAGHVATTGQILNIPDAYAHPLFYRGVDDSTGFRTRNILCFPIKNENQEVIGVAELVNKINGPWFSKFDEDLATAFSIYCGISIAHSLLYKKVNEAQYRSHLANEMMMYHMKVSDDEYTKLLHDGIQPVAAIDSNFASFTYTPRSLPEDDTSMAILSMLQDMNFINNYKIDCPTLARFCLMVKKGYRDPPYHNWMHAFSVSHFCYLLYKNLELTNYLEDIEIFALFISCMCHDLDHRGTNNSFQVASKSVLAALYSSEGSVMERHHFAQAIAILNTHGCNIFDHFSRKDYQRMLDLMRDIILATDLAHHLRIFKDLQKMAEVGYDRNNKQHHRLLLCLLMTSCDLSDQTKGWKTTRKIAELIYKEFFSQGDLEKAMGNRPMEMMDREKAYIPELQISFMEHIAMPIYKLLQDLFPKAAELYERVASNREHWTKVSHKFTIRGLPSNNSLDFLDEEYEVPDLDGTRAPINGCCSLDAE
Assay: PDE selectivity panel IMAP FP assay, human PDE2
Format: biochemical
Conditions: FAM cAMP 50 nM containing 1000 nM cGMP
Description: Selectivity for PDE2, as compared to other PDE families, was assessed using the IMAP® technology. Human PDE10A2 enzyme was prepared from cytosolic fractions of transiently transfected HEK cells. […] The enzyme and the substrate were then added to the assay plates in two consecutive additions of 10 μL and then shaken to mix. The reaction was allowed to proceed at room temperature for 60 minutes. […] The enzymatic reaction was stopped by addition of 60 μL of the binding solution to each well of the assay plate. The plates were sealed and shaken for 10 seconds. The plates were incubated at room temperature for one hour, then the parallel and perpendicular fluorescence was measured using a Tecan Genios Pro plate reader (Tecan, Switzerland). […] The intrinsic PDE2 inhibitory activity of a compound which may be used in accordance with the present invention may be determined by these assays. […] Additional data is provided in the following Examples.

Row | SMILES | Ki
3 | Cc1nc2c(C(C)c3cccc(C(F)(F)F)c3F)nn(CCO)c2c(=O)[nH]1 (single isomer, unassigned) [Example 9, (R)- or (S)-3-(1-(2-Fluoro-3-(trifluoromethyl)phenyl)ethyl)-1-(2-hydroxyethyl)-5-methyl-1,6-dihydro-7H-pyrazolo[4,3-d]pyrimidin-7-one] | 2800 nM
4 | Cc1nc2c([C@@H](C)c3ccc(C(F)(F)F)cc3)nn([C@H](C)CO)c2c(=O)[nH]1 (single isomer, unassigned) [Example 21, 1-((R)-1-Hydroxypropan-2-yl)-5-methyl-3-((S)-1-(4-(trifluoromethyl)phenyl)ethyl)-1,6-dihydro-7H-pyrazolo[4,3-d]pyrimidin-7-one or 1-((R)-1-Hydroxypropan-2-yl)-5-methyl-3-((R)-1-(4-(trifluoromethyl)phenyl)ethyl)-1,6-dihydro-7H-pyrazolo[4,3-d]pyrimidin-7-one] | 239 nM
5 | Cc1nc2c(C(C)c3cccc(C(F)(F)F)c3F)nn(CCO)c2c(=O)[nH]1 (single isomer, unassigned) [Example 10, (S)- or (R)-3-(1-(2-Fluoro-3-(trifluoromethyl)phenyl)ethyl)-1-(2-hydroxyethyl)-5-methyl-1,6-dihydro-7H-pyrazolo[4,3-d]pyrimidin-7-one] | 206 nM
6 | Cc1nn2c(C(C)c3ccc(OC(F)(F)F)cc3)nc(CO)c2c(=O)[nH]1 (single isomer, unassigned) [Example 32, (R)- or (S)-5-(hydroxymethyl)-2-methyl-7-(1-(4-(trifluoromethoxy)phenyl)ethyl)imidazo[5,1-f][1,2,4]triazin-4(3H)-one] | 62.5 nM
7 | Cc1nn2c(C(C)c3ccc(C(F)(F)F)cc3)nc(CC#N)c2c(=O)[nH]1 (stereo not shown) [Example 38, 2-(2-methyl-4-oxo-7-(1-(4-(trifluoromethyl)phenyl)ethyl)-3,4-dihydroimidazo-[5,1-f][1,2,4]triazin-5-yl)acetonitrile] | 6.1 nM
8 | Cc1nn2c([C@@H](C)c3ccc(C(F)(F)F)cc3)nc(CO)c2c(=O)[nH]1 (single isomer, unassigned) [Example 29] | 1.2 nM
9 | Cc1nn2c(C(C)c3ccc(C4(C)CC4)cc3)nc(CO)c2c(=O)[nH]1 (single isomer, unassigned) [Example 37, (S)- or (R)-5-(hydroxymethyl)-2-methyl-7-(1-(4-(1-methylcyclopropyl)phenyl)ethyl)imidazo[5,1-f][1,2,4]triazin-4(3H)-one] | 0.4 nM
10 | Cc1nn2c(C(C)c3ccc(C(F)(F)F)c(F)c3)nc(CO)c2c(=O)[nH]1 (single isomer, unassigned) [Example 34, (R)- or (S)-7-(1-(3-fluoro-4-(trifluoromethyl)phenyl)ethyl)-5-(hydroxymethyl)-2-methylimidazo[5,1-f][1,2,4]triazin-4(3H)-one] | 216 nM
11 | Cc1nn2c(C(C)c3ccc(C4(C)CC4)cc3)nc(CO)c2c(=O)[nH]1 (single isomer, unassigned) [Example 36, (R)- or (S)-5-(hydroxymethyl)-2-methyl-7-(1-(4-(1-methylcyclopropyl)phenyl)ethyl)imidazo[5,1-f][1,2,4]triazin-4(3H)-one] | 109 nM
12 | Cc1nc2c([C@@H](C)c3ccc(C(F)(F)F)cc3)nn([C@H](C)CO)c2c(=O)[nH]1 (single isomer, unassigned) [Example 22, 1-((R)-1-Hydroxypropan-2-yl)-5-methyl-3-((S)-1-(4-(trifluoromethyl)phenyl)ethyl)-1,6-dihydro-7H-pyrazolo[4,3-d]pyrimidin-7-one or 1-((R)-1-Hydroxypropan-2-yl)-5-methyl-3-((R)-1-(4-(trifluoromethyl)phenyl)ethyl)-1,6-dihydro-7H-pyrazolo[4,3-d]pyrimidin-7-one] | 15.6 nM
13 | Cc1nc2c([C@@H](C)c3ccc(C(F)(F)F)cc3)nn([C@@H](C)CO)c2c(=O)[nH]1 (single isomer, unassigned) [Example 23, 1-((S)-1-Hydroxypropan-2-yl)-5-methyl-3-((S)-1-(4-(trifluoromethyl)phenyl)ethyl)-1,6-dihydro-7H-pyrazolo[4,3-d]pyrimidin-7-one or 1-((S)-1-Hydroxypropan-2-yl)-5-methyl-3-((R)-1-(4-(trifluoromethyl)phenyl)ethyl)-1,6-dihydro-7H-pyrazolo[4,3-d]pyrimidin-7-one] | 142 nM
14 | Cc1nn2c(C(C)c3ccc(OC(F)(F)F)cc3)nc(CO)c2c(=O)[nH]1 (single isomer, unassigned) [Example 33, (S)- or (R)-5-(hydroxymethyl)-2-methyl-7-(1-(4-(trifluoromethoxy)phenyl)ethyl)imidazo[5,1-f][1,2,4]triazin-4(3H)-one] | 1.2 nM
15 | Cc1nn2c(C(C)c3ccc(C(F)(F)F)cc3F)nc(CO)c2c(=O)[nH]1 (single isomer, unassigned) [Example 30, (R)- or (S)-7-(1-(2-fluoro-4-(trifluoromethyl)phenyl)ethyl)-5-(hydroxymethyl)-2-methylimidazo[5,1-f][1,2,4]triazin-4(3H)-one] | 200 nM
16 | Cc1nn2c([C@@H](C)c3ccc(C(F)(F)F)cc3)nc(CO)c2c(=O)[nH]1 (single isomer, unassigned) [Example 28] | 298 nM
17 | Cc1nn2c(C(C)c3ccc(C(F)(F)F)cc3F)nc(CO)c2c(=O)[nH]1 (single isomer, unassigned) [Example 31, (S)- or (R)-7-(1-(2-fluoro-4-(trifluoromethyl)phenyl)ethyl)-5-(hydroxymethyl)-2-methylimidazo[5,1-f][1,2,4]triazin-4(3H)-one] | 0.8 nM
18 | Cc1nn2c([C@@H](C)c3ccc(C(F)(F)F)cc3)nc(C)c2c(=O)[nH]1 (single isomer, unassigned) [Example 27] | 17.2 nM
19 | Cc1nn2c(C(C)c3ccc(C(F)(F)F)c(F)c3)nc(CO)c2c(=O)[nH]1 (single isomer, unassigned) [Example 35, (S)- or (R)-7-(1-(3-fluoro-4-(trifluoromethyl)phenyl)ethyl)-5-(hydroxymethyl)-2-methylimidazo[5,1-f][1,2,4]triazin-4(3H)-one] | 1 nM
20 | Cc1nn2c([C@@H](C)c3ccc(C(F)(F)F)cc3)nc(CCO)c2c(=O)[nH]1 (single isomer, unassigned) [Example 39] | 90.3 nM

System: other PDE isoforms
Assay: not given
Conditions: literature report; cited from earlier work

Row | SMILES | potency at other PDE isoforms
21 | COc1ccc(Cc2nn3c([C@@H](CCCc4ccccc4)[C@@H](C)O)nc(C)c3c(=O)[nH]2)cc1OC [Bay 60-7550] | significant potency

System: not given
Assay: not given
Conditions: literature report; cited from earlier work

Row | SMILES | brain penetration
22 | COc1ccc(Cc2nn3c([C@@H](CCCc4ccccc4)[C@@H](C)O)nc(C)c3c(=O)[nH]2)cc1OC [Bay 60-7550] | limited
